{
  "source": "patent US8802664B2",
  "about": "(Bioproject, priority 2010, dated 2014)",
  "note": "Counter-ions that a name gives are not always drawn.",
  "data": [
    {"units": {"melting point": "°C"}, "values": [
      {"smiles": "CN1CCC(OC(c2nc3ccccc3[nH]2)c2cc(I)ccc2F)CC1", "note": "(stereo not drawn) (as salt: oxalate) [Example 425, 2-[(2-fluoro-5-iodo-phenyl)(1-methylpiperidin-4-yloxy)methyl]-1H-benzimidazole]", "melting point": 175},
      {"smiles": "CN1CCC(NC(c2cccc(OCCOc3ccccc3)c2)c2nc3ccccc3[nH]2)CC1", "note": "(stereo not drawn) (as salt: oxalate) [Example 106, {(1H-benzimidazol-2-yl)[3-(2-phenoxyethoxy)phenyl]methyl}(1-methylpiperidin-4-yl)amine]", "melting point": 140},
      {"smiles": "CN1CCC(OC(c2cccc(N3CC4CN(C)CC4C3)c2)c2nc3ccccc3s2)CC1", "note": "(stereo not drawn) (as salt: oxalate) [Example 485]", "melting point": 131},
      {"smiles": "CN1CCC(OC(c2cccc(C(=O)N(C)c3ccccc3)c2)c2nc3ccccc3s2)CC1", "note": "(stereo not drawn) (as salt: oxalate) [Example 223, 3-[benzothiazol-2-yl(1-methylpiperidin-4-yloxy)methyl]-N-methyl-N-phenylbenzamide]", "melting point": 125},
      {"smiles": "CNC1CCN(c2cccc(C(OC3CCN(C)CC3)c3nc4ccccc4s3)c2)C1", "note": "(stereo not drawn) (as salt: oxalate) [Example 483]", "melting point": 115},
      {"smiles": "CN1CCC(COC(c2cccc(C#CCCCN)c2)c2nc3cc(F)ccc3[nH]2)C1", "note": "(stereo not drawn) (as salt: oxalate) [Example 462]", "melting point": 200},
      {"smiles": "CN1CCC(OC(c2cccc(OCC=CCN)c2)c2nc3ccccc3s2)CC1", "note": "(stereo not drawn) (as salt: oxalate) [Example 431, 4-{3-[benzothiazol-2-yl(1-methylpiperidin-4-yloxy)methyl]phenoxy}but-2-enylamine]", "melting point": 117},
      {"smiles": "Cc1ccc(C(OC2CCN(C)CC2)c2nc3ccccc3s2)cc1", "note": "(stereo not drawn) (as salt: oxalate) [Example 7, 2-[(1-methylpiperidin-4-yloxy)-p-tolylmethyl]benzothiazole]", "melting point": 177},
      {"smiles": "CN1CCC(OC(c2cccc(N3CCC(O)C3)c2)c2nc3ccccc3s2)CC1", "note": "(stereo not drawn) (as salt: oxalate) [Example 407, 1-{3-[benzothiazol-2-yl(1-methylpiperidin-4-yloxy)methyl]phenyl}pyrrolidin-3-ol]", "melting point": 106},
      {"smiles": "Cc1ccc(C(OC2CCN(C)CC2)c2nc3ccccc3s2)s1", "note": "(stereo not drawn) (as salt: oxalate) [Example 19, 2-[(1-methylpiperidin-4-yloxy)(5-methylthiophen-2-yl)methyl]benzothiazole]", "melting point": 174},
      {"smiles": "CN1CCC(OC(c2nc3cc(F)ccc3[nH]2)c2cc(OC(F)(F)F)ccc2F)CC1", "note": "(stereo not drawn) (as salt: oxalate) [Example 509]", "melting point": 70},
      {"smiles": "CN1CCC(OC(c2nc3ccccc3[nH]2)c2ccc(F)cc2F)CC1", "note": "(stereo not drawn) (as salt: oxalate) [Example 221, 2-[(2,4-difluorophenyl)(1-methylpiperidin-4-yloxy)methyl]-1H-benzimidazole]", "melting point": 106},
      {"smiles": "CN1CCC(OC(c2cccc(F)c2)c2nc3ccccc3s2)CC1", "note": "(stereo not drawn) (as salt: oxalate) [Example 5]", "melting point": "167 to 170"},
      {"smiles": "COc1ccc(-c2cccc(C(NC3CCN(C)CC3)c3nc4ccccc4s3)c2)cc1", "note": "(stereo not drawn) (as salt: oxalate) [Example 211, [benzothiazol-2-yl(4′-methoxybiphenyl-3-yl)methyl](1-methylpiperidin-4-yl)amine]", "melting point": 130},
      {"smiles": "CN1CCC(OC(c2cccc(OC3CCC(N)C3)c2)c2nc3ccccc3s2)CC1", "note": "(stereo not drawn) (as salt: oxalate) [Example 453]", "melting point": 91},
      {"smiles": "CN1CCC(OC(c2cccc(SCCNC(=N)N)c2)c2nc3ccccc3s2)CC1", "note": "(stereo not drawn) (as salt: hydrochloride) [Example 302, N-(2-{3-[benzothiazol-2-yl(1-methylpiperidin-4-yloxy)methyl]phenylsulfanyl}ethyl)guanidine]", "melting point": 125},
      {"smiles": "CC(C)Oc1cccc(C(NC2CCN(C)CC2)c2nc3ccccc3s2)c1", "note": "(stereo not drawn) (as salt: oxalate) [Example 88, [benzothiazol-2-yl(3-isopropoxyphenyl)methyl](1-methylpiperidin-4-yl)amine]", "melting point": 96},
      {"smiles": "CN1CCC(OC(c2cccc(OCc3ccccn3)c2)c2nc3ccccc3s2)CC1", "note": "(stereo not drawn) (as salt: oxalate) [Example 283, 2-{(1-methylpiperidin-4-yloxy)[3-(pyridin-2-ylmethoxy)phenyl]methyl}benzothiazole]", "melting point": 158},
      {"smiles": "CCOC(=O)n1c(C(OC2CCN(C)CC2)c2cc(OC(F)(F)F)ccc2F)nc2ccccc21", "note": "(stereo not drawn) (as salt: oxalate) [Example 553]", "melting point": 118},
      {"smiles": "CN1CCC(OC(c2cccc(N3CCC(O)CC3)c2)c2nc3ccccc3s2)CC1", "note": "(stereo not drawn) (as salt: oxalate) [Example 411, 1-{3-[benzothiazol-2-yl(1-methylpiperidin-4-yloxy)methyl]phenyl}piperidin-4-ol]", "melting point": 110},
      {"smiles": "CN1CCC(OC(c2cccc(I)c2)c2nc3ccccc3s2)CC1", "note": "(stereo not drawn) (as salt: oxalate) [Example 41, 2-[(3-iodophenyl)(1-methylpiperidin-4-yloxy)methyl]benzothiazole]", "melting point": "165 to 170"},
      {"smiles": "CN1CCC(OC(c2cccc(CCCCCCNC(=N)N)c2)c2nc3ccccc3s2)CC1", "note": "(stereo not drawn) (as salt: hydrochloride) [Example 363, N-(6-{3-[benzothiazol-2-yl(1-methylpiperidin-4-yloxy)methyl]phenyl}hexyl)guanidine]", "melting point": 90},
      {"smiles": "CN1CCC(OC(c2cc(F)cc(F)c2)c2nc3ccccc3s2)CC1", "note": "(stereo not drawn) (as salt: oxalate) [Example 15, 2-[(3,5-difluorophenyl)(1-methyl-piperidin-4-yloxy)methyl]benzothiazole]", "melting point": 165},
      {"smiles": "Cc1cc(F)cc(C(OC2CCN(C)CC2)c2nc3ccccc3s2)c1", "note": "(stereo not drawn) (as salt: oxalate) [Example 38, 2-[(3-fluoro-5-methylphenyl)(1-methylpiperidin-4-yloxy)methyl]benzothiazole]", "melting point": 170},
      {"smiles": "CCCCOc1cccc(C(NC2CCN(C)CC2)c2nc3ccccc3s2)c1", "note": "(stereo not drawn) (as salt: oxalate) [Example 91, [benzothiazol-2-yl(3-butoxyphenyl)methyl](1-methylpiperidin-4-yl)amine]", "melting point": 176},
      {"smiles": "CN1CCC(OC(c2cccc(OCc3ccccc3)c2)c2nc3ccccc3s2)CC1", "note": "(stereo not drawn) (as salt: oxalate) [Example 45, 2-[(3-benzyloxyphenyl)(1-methylpiperidin-4-yloxy)methyl]benzothiazole]", "melting point": 52},
      {"smiles": "CN1CCC(OC(c2cccc(SCCCCN)c2)c2nc3cc(F)c(F)cc3[nH]2)CC1", "note": "(stereo not drawn) (as salt: oxalate) [Example 495]", "melting point": 180},
      {"smiles": "CN1CCC(OC(c2cccc(OCc3cccc(C(F)(F)F)c3)c2)c2nc3ccccc3s2)CC1", "note": "(stereo not drawn) (as salt: oxalate) [Example 187, 2-{(1-methylpiperidin-4-yloxy)[3-(3-trifluoromethyl-benzyloxy)phenyl]methyl}benzothiazole]", "melting point": 80},
      {"smiles": "CN1CCC(OC(c2cccc(OCCCCN)c2)c2nc3ccccc3[nH]2)CC1", "note": "(stereo not drawn) (as salt: oxalate) [Example 331, 4-{3-[(1H-benzimidazol-2-yl)(1-methylpiperidin-4-yloxy)methyl]phenoxy}butylamine]", "melting point": 115},
      {"smiles": "CC(=O)CCCOc1cccc(C(OC2CCN(C)CC2)c2nc3ccccc3s2)c1", "note": "(stereo not drawn) (as salt: oxalate) [Example 186, 5-{3-[benzothiazol-2-yl(1-methylpiperidin-4-yloxy)methyl]phenoxy}pentan-2-one]", "melting point": 72},
      {"smiles": "CN1CCC(NC(c2cccc(OCc3ccccc3F)c2)c2nc3ccccc3[nH]2)CC1", "note": "(stereo not drawn) (as salt: oxalate) [Example 113, {(1H-benzimidazol-2-yl)[3-(2-fluorobenzyloxy)phenyl]methyl}(1-methylpiperidin-4-yl)amine]", "melting point": 118},
      {"smiles": "CN1CCC(COC(c2cccc(Br)c2)c2nc3cc(F)ccc3[nH]2)C1", "note": "(stereo not drawn) (as salt: oxalate) [Example 449, 2-[(3-bromophenyl)(1-methylpyrrolidin-3-ylmethoxy)methyl]-5-fluoro-1H-benzimidazole]", "melting point": 70},
      {"smiles": "COc1cccc(COc2cccc(C(OC3CCN(C)CC3)c3nc4ccccc4s3)c2)c1", "note": "(stereo not drawn) (as salt: oxalate) [Example 185, 2-[[3-(3-methoxybenzyloxy)phenyl](1-methylpiperidin-4-yloxy)methyl]benzothiazole]", "melting point": 77},
      {"smiles": "CN1CCC(OC(c2cccc(OCCCn3cncn3)c2)c2nc3ccccc3s2)CC1", "note": "(stereo not drawn) (as salt: oxalate) [Example 348, 2-{(1-methylpiperidin-4-yloxy)[3-(3-[1,2,4]triazol-1-yl-propoxy)phenyl]methyl}benzothiazole]", "melting point": 60},
      {"smiles": "CNCCOc1cccc(C(OC2CCN(C)CC2)c2nc3ccccc3s2)c1", "note": "(stereo not drawn) (as salt: oxalate) [Example 279, (2-{3-[benzothiazol-2-yl(1-methylpiperidin-4-yloxy)methyl]phenoxy}ethyl)methyl-amine]", "melting point": 125},
      {"smiles": "CN1CCC(OC(c2nc3cccc(F)c3[nH]2)c2cc(OC(F)(F)F)ccc2F)CC1", "note": "(stereo not drawn) (as salt: oxalate) [Example 529]", "melting point": 135},
      {"smiles": "Cc1cc(F)c(C(OC2CCN(C)CC2)c2nc3ccccc3s2)c(F)c1", "note": "(stereo not drawn) (as salt: oxalate) [Example 531]", "melting point": 125},
      {"smiles": "CN1CCC(OC(c2cccc(SCCCCN)c2)c2nc3cc(F)c(F)c(F)c3[nH]2)CC1", "note": "(stereo not drawn) (as salt: oxalate) [Example 493]", "melting point": 110},
      {"smiles": "CN1CCC(OC(c2cccc(OCCCN)c2)c2nc3ccccc3s2)CC1", "note": "(stereo not drawn) (as salt: oxalate) [Example 311, 3-{3-[benzothiazol-2-yl(1-methylpiperidin-4-yloxy)methyl]phenoxy}propylamine]", "melting point": 120},
      {"smiles": "COc1cccc(COc2cccc(C(NC3CCN(C)CC3)c3nc4ccccc4[nH]3)c2)c1", "note": "(stereo not drawn) (as salt: oxalate) [Example 125, {(1H-benzimidazol-2-yl)[3-(3-methoxybenzyloxy)phenyl]methyl}(1-methylpiperidin-4-yl)amine]", "melting point": 135},
      {"smiles": "CN1CCC(OC(c2cccc(OCCCCCN)c2)c2nc3ccccc3[nH]2)CC1", "note": "(stereo not drawn) (as salt: oxalate) [Example 400, 5-{3-[(1H-benzimidazol-2-yl)(1-methylpiperidin-4-yloxy)methyl]phenoxy}pentylamine]", "melting point": 111},
      {"smiles": "CN1CCC(OC(c2cccc(OCc3cccc(F)c3)c2)c2nc3ccccc3s2)CC1", "note": "(stereo not drawn) (as salt: oxalate) [Example 171, 2-[[3-(3-fluorobenzyloxy)phenyl](1-methylpiperidin-4-yloxy)methyl]benzothiazole]", "melting point": 65}
    ]}
  ]
}
